This assay deals with HERG potassium channel (human ether-a-go-go related gene) (Homo sapiens, UniProt Q12809). Put plainly: cell-based.

Structures are written as SMILES.

This passage reports IC50 results from article PMC4527083 (European journal of pharmacology, 2014).

Sequence of HERG potassium channel (human ether-a-go-go related gene) (Q12809 whole entry): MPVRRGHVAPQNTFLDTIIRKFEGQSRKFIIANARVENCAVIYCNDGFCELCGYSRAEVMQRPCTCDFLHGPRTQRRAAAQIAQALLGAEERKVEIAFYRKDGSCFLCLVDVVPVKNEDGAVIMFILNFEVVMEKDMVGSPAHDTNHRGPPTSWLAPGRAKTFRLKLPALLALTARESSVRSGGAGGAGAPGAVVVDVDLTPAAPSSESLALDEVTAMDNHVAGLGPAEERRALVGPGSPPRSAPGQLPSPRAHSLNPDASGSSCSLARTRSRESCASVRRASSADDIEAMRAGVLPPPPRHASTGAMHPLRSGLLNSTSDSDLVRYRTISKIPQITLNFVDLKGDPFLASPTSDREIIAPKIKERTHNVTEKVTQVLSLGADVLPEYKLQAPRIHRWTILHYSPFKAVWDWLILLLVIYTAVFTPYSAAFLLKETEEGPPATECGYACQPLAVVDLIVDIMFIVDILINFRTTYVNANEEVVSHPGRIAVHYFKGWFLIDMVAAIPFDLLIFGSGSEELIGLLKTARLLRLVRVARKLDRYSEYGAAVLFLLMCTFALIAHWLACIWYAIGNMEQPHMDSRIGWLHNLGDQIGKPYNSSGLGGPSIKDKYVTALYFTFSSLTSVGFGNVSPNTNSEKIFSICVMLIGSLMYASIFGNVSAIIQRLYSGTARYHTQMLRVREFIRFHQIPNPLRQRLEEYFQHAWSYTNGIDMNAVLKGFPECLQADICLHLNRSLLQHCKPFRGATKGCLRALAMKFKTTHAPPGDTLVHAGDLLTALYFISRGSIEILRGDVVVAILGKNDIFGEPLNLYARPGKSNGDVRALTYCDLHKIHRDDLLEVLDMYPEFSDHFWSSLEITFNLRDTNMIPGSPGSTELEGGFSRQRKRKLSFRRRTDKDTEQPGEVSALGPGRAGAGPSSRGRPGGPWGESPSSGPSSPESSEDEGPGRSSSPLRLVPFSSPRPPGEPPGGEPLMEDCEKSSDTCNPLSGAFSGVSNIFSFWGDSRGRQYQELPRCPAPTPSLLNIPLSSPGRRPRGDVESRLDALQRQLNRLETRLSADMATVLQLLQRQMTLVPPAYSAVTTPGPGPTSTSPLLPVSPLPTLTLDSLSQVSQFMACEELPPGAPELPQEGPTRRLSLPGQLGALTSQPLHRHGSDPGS

Regarding `CCCCCCCCCCCC[N+](C)(C)CCOc1ccccc1` [DB, domiphen bromide], the IC50 (as a rule, the concentration at which inhibition is half-maximal) is 9 nM.
